From US20190233796A1, “Generation of Inner Ear Cells” (Massachusetts Eye & Ear Infirmary, priority 2006, published 2019)

System: Math1-estrogen receptor (ER) fusion protein
Experiment: Tamoxifen-inducible Math1-estrogen receptor (ER) fusion construct in transfected cells
Format: cell-based
Details: addition of tamoxifen to the transfected cells
Text: This Example describes a system in which administration of tamoxifen, a […], induces expression of Math1. A Math1-estrogen receptor (ER) fusion protein, where the ER has been mutated so that it selectively binds to tamoxifen rather than estrogen, is constitutively expressed. In the absence of tamoxifen, the Math1-ER construct remains quiescent within the cytosol where it is inactivated by heat shock proteins. […] The sequence of Math1 is given above.

CC/C(=C(\c1ccccc1)c1ccc(OCCN(C)C)cc1)c1ccccc1 [tamoxifen]
localization of the Math1-ER construct to the nucleus: dose-dependent localization of the Math1-ER construct to the nucleus
